{
  "source": "patent US20120003154A1",
  "about": "“ARYLOXYANILIDE DERIVATIVES” (priority 2009, published 2012)",
  "key": {"Wistar rat heart PBR": {"target": "T1, Wistar rat heart PBR (Rattus norvegicus, UniProt P16257)", "T1 construct": "PK-11195; from tissue; host or cells: Wistar rat heart", "assay": "In vitro potency assay (competition binding against [3H]PK-11195)", "method": "Affinity for PBR was screened using a method adapted from Le Fur et al (Life Sci. 1983; USA 33: 449-57).\nEach test compound (dissolved in 50 mM Tris-HCl, pH 7.4, 10 mM MgCl2 containing 1% DMSO) competed for binding to Wistar rat heart PBR against 0.3 nM [^3H] […] The reaction was carried out in 50 mM Tris-HCl, pH 7.4 10 mM MgCl2 for 15 minutes at 25° C."}, "PBR": {"system": "PBR", "details": "Wilson et al Nuc. Med. Biol. 2008; cited from earlier work"}},
  "note": "Like-named read-outs stand apart in the source and are kept apart here.",
  "data": [
    {"smiles": "CC(=O)N(Cc1ccccc1OCC[18F])c1cccnc1Oc1ccccc1", "note": "[Imaging Agent 1]", "values": [
      {"measurement": "measured potency for PBR compared with [18F]-FE-PBR28", "setting": "Wistar rat heart PBR; relative to FE-PBR28", "result": "two orders of magnitude less"}
    ]},
    {"smiles": "COc1ncccc1CN(C(=O)CF)c1ccccc1Oc1ccccc1", "note": "[Non-radioactive imaging agent 18, 2-Flouro-N-(2-methoxy-pyridin-3-ylmethyl)-N-(2-phenoxy-phenyl)-acetamide]", "values": [
      {"measurement": "Ki", "setting": "Wistar rat heart PBR", "result": 3.77, "unit": "nM"}
    ]},
    {"smiles": "CC(=O)N(Cc1ccccc1OCCF)c1cccnc1Oc1ccccc1", "note": "[Non-radioactive imaging agent 1, N-[2(2-fluoroethoxy)benzyl]-N-(2-phenoxypyridin-3-yl)acetamide]", "values": [
      {"measurement": "Ki", "setting": "Wistar rat heart PBR; read-out: Ki", "result": 4.24, "unit": "nM"}
    ]},
    {"smiles": "CC(=O)N(Cc1cccnc1OCCF)c1ccccc1Oc1ccccc1", "note": "[Non-radioactive imaging agent 19, N-[2-(2-Fluoro-ethoxy)-pyridin-3-ylmethyl]-N-(2-phenoxy-phenyl)-acetamide]", "values": [
      {"measurement": "Ki", "setting": "Wistar rat heart PBR; read-out: Ki", "result": 1.02, "unit": "nM"}
    ]},
    {"smiles": "CC(=O)N(Cc1ccccc1OCC[18F])c1cnccc1Oc1ccccc1", "note": "[[^18F]-FE-PBR28]", "values": [
      {"measurement": "affinity for PBR in vitro", "setting": "PBR", "result": "subnanomolar"}
    ]}
  ]
}
